Target: T1, recombinant human CK2 (RRββ-holoenzyme) (Homo sapiens, UniProt P68400)
T1 construct: purchased Millipore
Experiment: CK2 Kinase Assay (radiometric, [γ-33P] ATP)
Format: biochemical
Conditions: final ATP concentration 15 μM; 10 min at 30° C.; eight concentrations; read-out: protein kinase CK2 activity IC50
Description: CK2 Kinase Assay was conducted using the protocol as described in Pierre F. et al; J. Med. Chem. 2011, 54, 635-654. The tested compounds in aqueous solution were added at a volume of 10 μL to a reaction mixture comprising 10 μL of assay dilution buffer (ADB; 20 mM MOPS, pH 7.2, 25 mM β-glycerol phosphate, 5 mM EGTA, 1 mM sodium orthovanadate, and 1 mM dithiothreitol), 10 μL of substrate peptide (RRRDDDSDDD, dissolved in ADB at a concentration of 1 mM), 10 μL of recombinant human CK2 (RRββ-holoenzyme, 25 ng dissolved in ADB; Millipore). Reactions were initiated by the addition of 10 μL of ATP solution (90% 75 mMMgCl2, 75 μM ATP (final ATP concentration: 15 μM) dissolved in ADB; 10% [γ-33P] ATP (stock 1 mCi/100 μL; 3000 Ci/mmol (Perkin-Elmer) and maintained for 10 min at 30° C. The reactions were quenched with 100 μL of 0.75% phosphoric acid and then transferred to and filtered through a phosphor cellulose filter plate (Millipore). After washing each well five times with 0.75% phosphoric acid, the plate was dried under vacuum for 5 min and, following the addition of 15 μL of scintillation fluid to each well, the residual radioactivity was measured using a Wallac luminescence counter. The IC50 values were derived from eight concentrations of test inhibitors.

T1 sequence (P68400 whole entry): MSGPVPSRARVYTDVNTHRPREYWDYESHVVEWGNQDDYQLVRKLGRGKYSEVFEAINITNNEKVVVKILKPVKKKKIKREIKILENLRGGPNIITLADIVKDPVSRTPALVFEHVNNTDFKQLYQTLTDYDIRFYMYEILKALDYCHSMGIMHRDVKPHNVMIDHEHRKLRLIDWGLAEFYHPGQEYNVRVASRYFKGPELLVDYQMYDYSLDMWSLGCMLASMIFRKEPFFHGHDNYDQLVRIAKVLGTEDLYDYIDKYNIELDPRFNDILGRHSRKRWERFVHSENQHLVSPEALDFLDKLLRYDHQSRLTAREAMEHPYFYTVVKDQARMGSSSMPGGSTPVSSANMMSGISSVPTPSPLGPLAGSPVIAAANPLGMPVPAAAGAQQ
T1 sequence (P67870 whole entry partner): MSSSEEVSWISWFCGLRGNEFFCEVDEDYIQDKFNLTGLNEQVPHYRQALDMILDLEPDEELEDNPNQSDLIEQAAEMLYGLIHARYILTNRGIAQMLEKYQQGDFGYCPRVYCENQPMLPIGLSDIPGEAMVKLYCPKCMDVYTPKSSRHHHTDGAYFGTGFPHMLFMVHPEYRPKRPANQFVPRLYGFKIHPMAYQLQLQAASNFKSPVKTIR

**Q.** Which IC50 does the source give for `O=C(O)c1cn2c(Nc3cccc(Cl)c3)nc3ccncc3c2n1` [Compound 1] here?
**A.** 41 nM

Reference: US11987581B1 (KING FAISAL UNIVERSITY, priority 2023, dated 2024)
